{
  "source": "patent US9242970B2",
  "about": "(ACTELION PHARMACEUTICALS LTD., priority 2010, dated 2016)",
  "key": {"[1]": {"target": "human orexin-1 receptor (Homo sapiens (Human), UniProt O43613)", "sequence (O43613 whole entry)": "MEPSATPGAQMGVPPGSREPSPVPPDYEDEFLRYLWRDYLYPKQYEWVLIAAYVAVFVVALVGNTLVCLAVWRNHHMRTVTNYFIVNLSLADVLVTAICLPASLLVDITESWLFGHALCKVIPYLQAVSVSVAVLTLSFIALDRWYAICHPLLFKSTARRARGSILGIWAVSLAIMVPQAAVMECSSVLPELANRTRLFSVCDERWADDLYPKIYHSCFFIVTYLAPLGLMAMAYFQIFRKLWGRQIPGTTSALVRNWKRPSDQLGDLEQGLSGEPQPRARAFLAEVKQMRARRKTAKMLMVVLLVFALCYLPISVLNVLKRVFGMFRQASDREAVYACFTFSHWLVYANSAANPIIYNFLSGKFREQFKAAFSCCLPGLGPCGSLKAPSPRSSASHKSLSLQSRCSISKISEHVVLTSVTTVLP", "assay": "In vitro assay: intracellular calcium measurements (FLIPR), antagonistic activity", "type": "cell-based", "conditions": "CHO cells, 3 nM orexin-A, compound incubation 120 min; marked values are geometric means of n = 2-6; read-out: IC50 OX1"}, "[2]": {"target": "human orexin-2 receptor (Homo sapiens (Human), UniProt O43614)", "sequence (O43614 whole entry)": "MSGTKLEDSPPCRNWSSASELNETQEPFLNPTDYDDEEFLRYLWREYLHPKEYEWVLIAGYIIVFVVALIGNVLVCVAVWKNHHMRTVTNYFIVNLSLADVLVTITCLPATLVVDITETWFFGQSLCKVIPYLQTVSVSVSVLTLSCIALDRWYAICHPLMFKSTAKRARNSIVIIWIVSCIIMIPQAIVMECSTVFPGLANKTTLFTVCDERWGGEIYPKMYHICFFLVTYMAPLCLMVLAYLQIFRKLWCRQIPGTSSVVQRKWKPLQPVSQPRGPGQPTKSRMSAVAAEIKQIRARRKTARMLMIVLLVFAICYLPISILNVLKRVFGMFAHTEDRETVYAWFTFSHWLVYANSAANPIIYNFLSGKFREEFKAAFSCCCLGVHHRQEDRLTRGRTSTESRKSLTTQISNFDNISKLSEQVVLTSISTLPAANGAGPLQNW", "assay": "In vitro assay: intracellular calcium measurements (FLIPR), antagonistic activity", "type": "cell-based", "conditions": "CHO cells, 3 nM orexin-A, compound incubation 120 min; marked values are geometric means of n = 2-6; read-out: IC50 OX2"}},
  "note": "pIC50: −log10 of the molar value.",
  "data": [
    {"smiles": "COc1cccc(OC)c1C1CCC(=O)N1Cc1ccc(Oc2nc(C)cs2)cc1", "note": "(stereo not shown) [Example 292, 5-(2,6-dimethoxyphenyl)-1-(4-((4-methylthiazol-2-yl)oxy)benzyl)pyrrolidin-2-one]", "values": [
      {"measurement": "pIC50", "setting": "[1]", "result": 6.67},
      {"measurement": "pIC50", "setting": "[2]", "result": 6.90}
    ]},
    {"smiles": "COc1cccc(OC)c1C1CC(F)(F)C(=O)N1Cc1cccc(-c2ccccc2)c1", "note": "(stereo not shown) [Example 336, 1-([1,1′-biphenyl]-3-ylmethyl)-5-(2,6-dimethoxyphenyl)-3,3-difluoropyrrolidin-2-one]", "values": [
      {"measurement": "pIC50", "setting": "[1]", "result": 7.80},
      {"measurement": "pIC50", "setting": "[2]", "result": 7.09}
    ]},
    {"smiles": "CCOc1cccc(OC)c1C1CC(F)(F)C(=O)N1Cc1cccc(-c2ccccc2)c1", "note": "(stereo not shown) [Example 337, 1-([1,1′-biphenyl]-3-ylmethyl)-5-(2-ethoxy-6-methoxyphenyl)-3,3-difluoropyrrolidin-2-one]", "values": [
      {"measurement": "pIC50", "setting": "[1]", "result": 7.92},
      {"measurement": "pIC50", "setting": "[2]", "result": 7.20}
    ]},
    {"smiles": "COc1cccc(OC)c1C1CC(C)C(=O)N1Cc1cnc2ccccc2c1", "note": "(stereo not shown) [Example 347, 5-(2,6-dimethoxyphenyl)-3-methyl-1-(quinolin-3-ylmethyl)pyrrolidin-2-one]", "values": [
      {"measurement": "pIC50", "setting": "[1]", "result": 5.85},
      {"measurement": "pIC50", "setting": "[2]", "result": 6.11}
    ]},
    {"smiles": "COc1cccc(OC)c1C1CC(C)C(=O)N1Cc1ccc2ccccc2n1", "note": "(stereo not shown) [Example 348, 5-(2,6-dimethoxyphenyl)-3-methyl-1-(quinolin-2-ylmethyl)pyrrolidin-2-one]", "values": [
      {"measurement": "pIC50", "setting": "[1]", "result": 6.69},
      {"measurement": "pIC50", "setting": "[2]", "result": 6.32}
    ]},
    {"smiles": "COc1ccnc(OC)c1C1CC(C)C(=O)N1Cc1cccc(-c2ncc(C)s2)c1", "note": "(stereo not shown) [Example 349, 5-(2,4-dimethoxypyridin-3-yl)-3-methyl-1-(3-(5-methylthiazol-2-yl)benzyl)pyrrolidin-2-one]", "values": [
      {"measurement": "pIC50", "setting": "[1]", "result": 6.98},
      {"measurement": "pIC50", "setting": "[2]", "result": 6.92}
    ]},
    {"smiles": "COc1ccnc(OC)c1C1CC(C)C(=O)N1Cc1csc(-c2ccc(C)cc2)n1", "note": "(stereo not shown) [Example 350, 5-(2,4-dimethoxypyridin-3-yl)-3-methyl-1-((2-(p-tolyl)thiazol-4-yl)methyl)pyrrolidin-2-one]", "values": [
      {"measurement": "pIC50", "setting": "[1]", "result": 6.18},
      {"measurement": "pIC50", "setting": "[2]", "result": 7.29}
    ]},
    {"smiles": "COc1cccc(OC)c1C1CC(C)C(=O)N1Cc1ccnc(-c2ncc(C)s2)c1", "note": "(stereo not shown) [Example 351, 5-(2,6-dimethoxyphenyl)-3-methyl-1-((2-(5-methylthiazol-2-yl)pyridin-4-yl)methyl)pyrrolidin-2-one]", "values": [
      {"measurement": "pIC50", "setting": "[1]", "result": 7.80},
      {"measurement": "pIC50", "setting": "[2]", "result": 7.29}
    ]},
    {"smiles": "COc1ccnc(OC)c1C1CC(C)C(=O)N1Cc1ccc2oc3ccccc3c2c1", "note": "(stereo not shown) [Example 352, 1-(dibenzo[b,d]furan-2-ylmethyl)-5-(2,4-dimethoxypyridin-3-yl)-3-methylpyrrolidin-2-one]", "values": [
      {"measurement": "pIC50", "setting": "[1]", "result": 8.15},
      {"measurement": "pIC50", "setting": "[2]", "result": 7.89}
    ]},
    {"smiles": "COc1cccc(OC)c1C1CC(F)(F)C(=O)N1Cc1ccc2oc3ccccc3c2c1", "note": "(stereo not shown) [Example 353, 1-(dibenzo[b,d]furan-2-ylmethyl)-5-(2,6-dimethoxyphenyl)-3,3-difluoropyrrolidin-2-one]", "values": [
      {"measurement": "pIC50", "setting": "[1]", "result": 8.40},
      {"measurement": "pIC50", "setting": "[2]", "result": 7.72}
    ]},
    {"smiles": "COc1ccnc(OC)c1C1CC(C)C(=O)N1Cc1cccc(-c2ccccc2)c1", "note": "(stereo not shown) [Example 354, 1-([1,1′-biphenyl]-3-ylmethyl)-5-(2,4-dimethoxypyridin-3-yl)-3-methylpyrrolidin-2-one]", "values": [
      {"measurement": "pIC50", "setting": "[1]", "result": 7.25},
      {"measurement": "pIC50", "setting": "[2]", "result": 6.95}
    ]},
    {"smiles": "COc1ccnc(OC)c1C1CC(C)C(=O)N1Cc1cccc(-c2nc(Cl)cs2)c1", "note": "(stereo not shown) [Example 355, 1-(3-(4-chlorothiazol-2-yl)benzyl)-5-(2,4-dimethoxypyridin-3-yl)-3-methylpyrrolidin-2-one]", "values": [
      {"measurement": "pIC50", "setting": "[1]", "result": 7.47},
      {"measurement": "pIC50", "setting": "[2]", "result": 6.99}
    ]},
    {"smiles": "COc1ccnc(OC)c1C1CC(C)C(=O)N1Cc1cccc(-c2csc(C)n2)c1", "note": "(stereo not shown) [Example 356, 5-(2,4-dimethoxypyridin-3-yl)-3-methyl-1-(3-(2-methylthiazol-4-yl)benzyl)pyrrolidin-2-one]", "values": [
      {"measurement": "pIC50", "setting": "[1]", "result": 7.52},
      {"measurement": "pIC50", "setting": "[2]", "result": 6.95}
    ]},
    {"smiles": "COc1cccc(F)c1C1CC(C)C(=O)N1Cc1cnc2ccccc2c1", "note": "(stereo not shown) [Example 358, 5-(2-fluoro-6-methoxyphenyl)-3-methyl-1-(quinolin-3-ylmethyl)pyrrolidin-2-one]", "values": [
      {"measurement": "pIC50", "setting": "[1]", "result": 6.02},
      {"measurement": "pIC50", "setting": "[2]", "result": 5.90}
    ]},
    {"smiles": "COc1cccc(F)c1C1CC(C)C(=O)N1Cc1ccc2ccccc2n1", "note": "(stereo not shown) [Example 359, 5-(2-fluoro-6-methoxyphenyl)-3-methyl-1-(quinolin-2-ylmethyl)pyrrolidin-2-one]", "values": [
      {"measurement": "pIC50", "setting": "[1]", "result": 5.77},
      {"measurement": "pIC50", "setting": "[2]", "result": 6.48}
    ]},
    {"smiles": "COc1cccc(F)c1C1CC(C)C(=O)N1Cc1ccnc(-c2ncc(C)s2)c1", "note": "(stereo not shown) [Example 360, 5-(2-fluoro-6-methoxyphenyl)-3-methyl-1-((2-(5-methylthiazol-2-yl)pyridin-4-yl)methyl)pyrrolidin-2-one]", "values": [
      {"measurement": "pIC50", "setting": "[1]", "result": 6.45},
      {"measurement": "pIC50", "setting": "[2]", "result": 7.92}
    ]},
    {"smiles": "COc1cccc(F)c1C1CC(C)C(=O)N1Cc1ccnc(-n2cccn2)c1", "note": "(stereo not shown) [Example 361, 1-((2-(1H-pyrazol-1-yl)pyridin-4-yl)methyl)-5-(2-fluoro-6-methoxyphenyl)-3-methylpyrrolidin-2-one]", "values": [
      {"measurement": "pIC50", "setting": "[1]", "result": 6.07},
      {"measurement": "pIC50", "setting": "[2]", "result": 7.06}
    ]},
    {"smiles": "COc1cccc(F)c1C1CC(C)C(=O)N1Cc1ccc2oc3ccccc3c2c1", "note": "(stereo not shown) [Example 362, 1-(dibenzo[b,d]furan-2-ylmethyl)-5-(2-fluoro-6-methoxyphenyl)-3-methylpyrrolidin-2-one]", "values": [
      {"measurement": "pIC50", "setting": "[1]", "result": 7.07},
      {"measurement": "pIC50", "setting": "[2]", "result": 8.22}
    ]},
    {"smiles": "COc1cccc(F)c1C1CC(C)C(=O)N1Cc1csc(-c2ccc(C)cc2)n1", "note": "(stereo not shown) [Example 363, 5-(2-fluoro-6-methoxyphenyl)-3-methyl-1-((2-(p-tolyl)thiazol-4-yl)methyl)pyrrolidin-2-one]", "values": [
      {"measurement": "pIC50", "setting": "[1]", "result": 6.37},
      {"measurement": "pIC50", "setting": "[2]", "result": 7.31}
    ]},
    {"smiles": "COc1cccc(F)c1C1CC(C)C(=O)N1Cc1cccc(-c2ncc(C)s2)c1", "note": "(stereo not shown) [Example 364, 5-(2-fluoro-6-methoxyphenyl)-3-methyl-1-(3-(5-methylthiazol-2-yl)benzyl)pyrrolidin-2-one]", "values": [
      {"measurement": "pIC50", "setting": "[1]", "result": 6.92},
      {"measurement": "pIC50", "setting": "[2]", "result": 7.96}
    ]},
    {"smiles": "COc1cccc(F)c1C1CC(C)C(=O)N1Cc1cccc(-c2nc(Cl)cs2)c1", "note": "(stereo not shown) [Example 365, 1-(3-(4-chlorothiazol-2-yl)benzyl)-5-(2-fluoro-6-methoxyphenyl)-3-methylpyrrolidin-2-one]", "values": [
      {"measurement": "pIC50", "setting": "[1]", "result": 6.94},
      {"measurement": "pIC50", "setting": "[2]", "result": 8.05}
    ]},
    {"smiles": "COc1cccc(F)c1C1CC(C)C(=O)N1Cc1ccnc(-c2nc(C)cs2)c1", "note": "(stereo not shown) [Example 366, 5-(2-fluoro-6-methoxyphenyl)-3-methyl-1-((2-(4-methylthiazol-2-yl)pyridin-4-yl)methyl)pyrrolidin-2-one]", "values": [
      {"measurement": "pIC50", "setting": "[1]", "result": 6.80},
      {"measurement": "pIC50", "setting": "[2]", "result": 8.10}
    ]},
    {"smiles": "CCOc1cccc(F)c1C1CC(C)C(=O)N1Cc1cccc(OC(F)(F)F)c1", "note": "(stereo not shown) [Example 371, 5-(2-ethoxy-6-fluorophenyl)-3-methyl-1-(3-(trifluoromethoxy)benzyl)pyrrolidin-2-one]", "values": [
      {"measurement": "pIC50", "setting": "[1]", "result": 6.41},
      {"measurement": "pIC50", "setting": "[2]", "result": 7.72}
    ]},
    {"smiles": "CCOc1cccc(F)c1C1CC(C)C(=O)N1Cc1ccc(OC(F)(F)F)c(F)c1", "note": "(stereo not shown) [Example 372, 5-(2-ethoxy-6-fluorophenyl)-1-(3-fluoro-4-(trifluoromethoxy)benzyl)-3-methylpyrrolidin-2-one]", "values": [
      {"measurement": "pIC50", "setting": "[1]", "result": 5.83},
      {"measurement": "pIC50", "setting": "[2]", "result": 6.94}
    ]},
    {"smiles": "CCOc1cccc(F)c1C1CC(C)C(=O)N1Cc1cccc(OC(F)F)c1", "note": "(stereo not shown) [Example 374, 1-(3-(difluoromethoxy)benzyl)-5-(2-ethoxy-6-fluorophenyl)-3-methylpyrrolidin-2-one]", "values": [
      {"measurement": "pIC50", "setting": "[1]", "result": 6.01},
      {"measurement": "pIC50", "setting": "[2]", "result": 7.39}
    ]},
    {"smiles": "CCOc1cccc(F)c1C1CC(C)C(=O)N1Cc1ccc(OC(F)F)c(Cl)c1", "note": "(stereo not shown) [Example 375, 1-(3-chloro-4-(difluoromethoxy)benzyl)-5-(2-ethoxy-6-fluorophenyl)-3-methylpyrrolidin-2-one]", "values": [
      {"measurement": "pIC50", "setting": "[1]", "result": 6.15},
      {"measurement": "pIC50", "setting": "[2]", "result": 7.19}
    ]}
  ]
}
